Entries after “also recorded” stand apart in the source; their conditions may differ.
Experiments:
[1] = system: hippocampal slices from WT mice; assay: Long-term potentiation (LTP) in hippocampal slices perfused with oTau or oAβ; assay type: cell-based
Description: Synaptic dysfunction is a major hallmark of AD (Histol Histopathol, 1995. 10(2): p. 509-19; herein incorporated by reference in its entirety). An aspect of the drug screening protocol can include a measurement of the effect of compounds onto synaptic function. Amyloid-beta (Aβ) is a toxic peptide that is thought to underlie subtle amnesic changes occurring at early stages of Alzheimer's disease. It impairs both memory and its electrophysiological surrogate, long-term potentiation (LTP). LTP can be examined because it is a type of synaptic plasticity thought to underlie learning and memory. RA010115 can rescue the Aβ-induced reduction of LTP, and other compounds can also be screened to identify those that can re-establish normal LTP. The compounds can be applied for 20 min. Controls can be performed on slices in the absence of Aβ, and mice treated with compound. Tau is another peptide that is involved in cell to cell communication, and impairs both memory and LTP in animal models of AD and other tauopathies. FIG. 26 is a graph showing that RA010115 rescues oligomeric Tau (oTau)- and oligomeric Aβ (o Aβ)-induced LTP deficits. LTP was impaired in hippocampal slices from WT mice perfused with oTau (50 nM) and oAβ (200 nM), whereas there was no impairment in slices treated with RA10115 or vehicle. LTP was restored in slices perfused with RA010115 and either oTau or oAβ. The horizontal solid bar represents oAβ and oTau perfusion while the horizontal dashed bar represents RA010115. The three arrows correspond to the theta-burst stimulation. […]

mice = assay: 2 day radial arm water maze (RAWM), spatial short-term memory; assay type: in vivo
Method: Synaptic plasticity is thought to underlie memory formation. RA010115 was also tested in assays aimed at determining whether the compound can be beneficial to two types of memory, short-term spatial memory that can tested through the 2 day radial arm water maze, and contextual fear memory, a type of associative memory that depends upon hippocampal function and is impaired in AD patients. FIG. 27 is a graph showing that RA010115 rescues oTau- and oAβ-induced defects in the 2-day radial arm water maze test of spatial short-term memory. The performance in the RAWM was impaired in mice administered with oAβ (200 nM) oTau (500 nM). […] The performance was not impaired when mice were treated with only RA010115 or vehicle. (ANOVA for repeated measures among all groups at day 2: F(5, 65)=7.092, p<0.0001. One-way ANOVA for block 10: F(5, 65)=7.385, p<0.0001; Bonferroni's p<0.0001 for both oAβ vs. vehicle and oTau vs. vehicle; oAβ vs RA010115 plus oAβ p<0.001 and for oTau vs RA010115 plus oTau p<0.05.

For `COc1cccc(OC)c1C(=O)Nc1ccc(Cl)c(C(F)(F)F)c1` [RA010115], the “LTP in slices treated with compound alone” value ([1]; no oTau or oAβ) was “no impairment”, the “oTau- and oAβ-induced LTP deficits” value ([1]; slices perfused with compound and either oTau (50 nM) or oAβ (200 nM)) was “restored; also recorded: rescues” and the “oTau- and oAβ-induced defects in RAWM performance” value (mice; mice administered oAβ (200 nM) or oTau (500 nM), compound 5 mg/kg, 5 mg/kg) was “rescued the deficit; also recorded: rescues”. The “RAWM performance, compound alone” value (mice; mice treated with only compound) was “not impaired”.

Source: patent US20220127232A1, “HISTONE ACETYLTRANSFERASE MODULATORS AND COMPOSITIONS AND USES THEREOF” (The Trustees of Columbia University in the City of New York, priority 2019, published 2022)
